Measured values: patent publication US20220235064A1 (WELLMARKER BIO CO., LTD., priority 2019, published 2022)

Columns and labels:
[1] = target: T1, RON tyrosine kinase (Homo sapiens, UniProt Q04912); assay: Enzyme inhibitory activity against RON tyrosine kinase (TR-FRET); type: biochemical; conditions: RON (Carna Bioscience)
T1 construct: purchased Carna Bioscience
Method in brief: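 Recombinant RON was preincubated with compound for 15 min at RT in 50 mM HEPES pH 7.5, 10 mM MgCl2, 1 mM EGTA, 2 mM DTT, 0.01% Tween-20. Enzyme (0.4 nM), ATP (60 μM) and tyrosine peptide (400 nM) were prepared at 2×, 4× and 4× final. After 60 min at RT, EDTA/Eu-anti-phosphotyrosine stop; IC50 from 665 nm TR-FRET emission.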

[2] = system: cancer cell line KM12C, in which RON is activated; assay: Cell growth inhibitory ability in RON-activated cancer cell line (MTS); type: cell-based; conditions: Homo sapiens, 48 hours, absorbance 490 nm
Procedure: Experimental Example 2: Identification of Cell Growth Inhibitory Ability of Example Compounds in RON-Activated Cancer Cell Line
The cancer cell line KM12C (80015, KCLB, MEM+1K° FBS), in which RON is activated, was treated with each of the example compounds at a concentration of 10 μM, and then reaction was allowed to proceed for 48 hours. 24 hours after completion of the reaction, 20 μl of MTS solution (CellTiter 96 Aqueous One Solution Cell Proliferation Assay, product number: G3581, Promega) was added to each well, and then incubation was performed at a temperature of 37° C. in 50 CO2 incubator for 4 hours. Then, an IC50 value of the compound was derived by measuring its absorbance value at a wavelength of 490 nm using a Victor X5 plate reader. Here, as a positive control, N-(4-(2-amino-3-chloropyridin-4-yloxy)-3-fluorophenyl)-4-ethoxy-1-(4-fluorophenyl)-2-oxo-1,2-dihydropyridine-3-carboxamide, which is the compound of Example 1 in WO 2008/058229 A1, was used.

T1 sequence (Q04912 25-1400): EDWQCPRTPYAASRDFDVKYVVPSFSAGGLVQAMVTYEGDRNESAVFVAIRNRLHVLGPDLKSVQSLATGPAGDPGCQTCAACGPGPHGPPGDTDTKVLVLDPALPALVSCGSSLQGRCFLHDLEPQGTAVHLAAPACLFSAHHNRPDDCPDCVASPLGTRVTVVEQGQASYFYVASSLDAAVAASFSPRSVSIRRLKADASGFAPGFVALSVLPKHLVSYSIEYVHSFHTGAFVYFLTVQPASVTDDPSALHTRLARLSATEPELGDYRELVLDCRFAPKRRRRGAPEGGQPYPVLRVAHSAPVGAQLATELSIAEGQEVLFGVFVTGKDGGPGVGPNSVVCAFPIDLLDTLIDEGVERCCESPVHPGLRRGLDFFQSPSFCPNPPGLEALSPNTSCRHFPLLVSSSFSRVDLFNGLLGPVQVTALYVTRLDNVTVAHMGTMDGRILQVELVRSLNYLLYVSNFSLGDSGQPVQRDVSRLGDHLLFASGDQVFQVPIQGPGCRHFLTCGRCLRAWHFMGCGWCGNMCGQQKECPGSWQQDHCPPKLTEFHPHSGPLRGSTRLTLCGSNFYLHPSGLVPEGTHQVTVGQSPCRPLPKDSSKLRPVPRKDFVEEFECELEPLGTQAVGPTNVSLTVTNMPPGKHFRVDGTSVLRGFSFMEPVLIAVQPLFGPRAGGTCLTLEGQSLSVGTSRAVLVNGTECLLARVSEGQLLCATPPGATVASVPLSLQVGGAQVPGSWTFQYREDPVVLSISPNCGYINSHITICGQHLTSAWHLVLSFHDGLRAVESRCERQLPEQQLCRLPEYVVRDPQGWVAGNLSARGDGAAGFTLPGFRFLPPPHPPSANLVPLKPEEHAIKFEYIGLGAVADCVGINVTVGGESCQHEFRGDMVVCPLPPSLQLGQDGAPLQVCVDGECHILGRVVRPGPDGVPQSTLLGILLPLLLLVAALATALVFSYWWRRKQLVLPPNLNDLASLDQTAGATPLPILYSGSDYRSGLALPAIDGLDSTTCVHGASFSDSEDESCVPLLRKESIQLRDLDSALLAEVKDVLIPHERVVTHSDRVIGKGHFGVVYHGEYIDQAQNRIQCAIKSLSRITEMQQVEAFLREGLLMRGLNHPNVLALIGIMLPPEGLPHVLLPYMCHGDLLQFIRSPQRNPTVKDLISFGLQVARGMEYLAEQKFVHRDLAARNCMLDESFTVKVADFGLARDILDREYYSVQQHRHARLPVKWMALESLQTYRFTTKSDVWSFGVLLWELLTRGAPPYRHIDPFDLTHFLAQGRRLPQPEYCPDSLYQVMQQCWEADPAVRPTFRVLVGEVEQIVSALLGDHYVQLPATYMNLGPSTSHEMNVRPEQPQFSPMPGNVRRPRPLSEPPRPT

An IC50 [1] of 0.5 nM and an IC50 [2] of 0.6 nM were found for `Cn1cnc(-c2cc3nccc(Oc4ccc(NC(=O)c5c6c(cn(-c7ccccc7)c5=O)CCO6)cc4F)c3s2)c1` [Example 9, N-(3-Fluoro-4-((2-(1-methyl-1H-imidazol-4-yl)thieno[3,2-b]pyridin-7-yl)oxy)phenyl)-6-oxo-5-phenyl-2,3,5,6-tetrahydrofuro[3,2-c]pyridine-7-carboxamide] in this work.

An IC50 [1] of 0.55 nM and an IC50 [2] of 2 nM were found for `CCNC(=O)c1cc2c(Oc3ccc(NC(=O)c4c5c(cn(-c6ccc(F)cc6)c4=O)CCO5)cc3F)ccnc2cc1OC` [Example 51, N-(4-((6-(Ethylcarbamoyl)-7-methoxyquinolin-4-yl)oxy)-3-fluorophenyl)-5-(4-fluorophenyl)-6-oxo-2,3,5,6-tetrahydrofuro[3,2-c]pyridine-7-carboxamide] in this work.

An IC50 [1] of 1.03 nM and an IC50 [2] of 3 nM were found for `COc1cc2nccc(Oc3ccc(NC(=O)c4c5c(cn(-c6ccc(F)cc6)c4=O)CCO5)cc3F)c2cc1NC(=O)CN1CCOCC1` [Example 53, N-(3-Fluoro-4-((7-methoxy-6-(2-morpholinoacetamido)quinolin-4-yl)oxy)phenyl)-5-(4-fluorophenyl)-6-oxo-2,3,5,6-tetrahydrofuro[3,2-c]pyridine-7-carboxamide] in this work.

An IC50 [1] of 12.3 nM and an IC50 [2] of 1670 nM were found for `O=C(Nc1ccc(Oc2ccnc(NCCCN3CCOCC3)c2Cl)c(F)c1)c1c2c(cn(-c3ccc(F)cc3)c1=O)CCO2` [Example 62, N-(4-((3-Chloro-2-((3-morpholinopropyl)amino)pyridin-4-yl)oxy)-3-fluorophenyl)-5-(4-fluorophenyl)-6-oxo-2,3,5,6-tetrahydrofuro[3,2-c]pyridine-7-carboxamide] in this work.

An IC50 [1] of 20.6 nM and an IC50 [2] of 2280 nM were found for `CN1CCC(Nc2cc(Oc3ccc(NC(=O)c4c5c(cn(-c6ccc(F)cc6)c4=O)CCO5)cc3F)ccn2)CC1` [Example 63, N-(3-Fluoro-4-((2-((1-methylpiperidin-4-yl)amino)pyridin-4-yl)oxy)phenyl)-5-(4-fluorophenyl)-6-oxo-2,3,5,6-tetrahydrofuro[3,2-c]pyridine-7-carboxamide] in this work.

An IC50 [1] of 8.24 nM and an IC50 [2] of 11 nM were found for `O=C(Nc1ccc(Oc2ncnc3[nH]ccc23)c(F)c1)c1c2c(cn(-c3ccc(F)cc3)c1=O)CCO2` [Example 71, N-(4-((7H-pyrrolo[2,3-d]pyrimidin-4-yl)oxy)-3-fluorophenyl)-5-(4-fluorophenyl)-6-oxo-2,3,5,6-tetrahydrofuro[3,2-c]pyridine-7-carboxamide] in this work.

An IC50 [1] of 17.5 nM and an IC50 [2] of 8 nM were found for `O=C(Nc1ccc(Oc2ncnc3[nH]ncc23)c(F)c1)c1c2c(cn(-c3ccc(F)cc3)c1=O)CCO2` [Example 73, N-(4-((1H-pyrazolo[3,4-d]pyrimidin-4-yl)oxy)-3-fluorophenyl)-5-(4-fluorophenyl)-6-oxo-2,3,5,6-tetrahydrofuro[3,2-c]pyridine-7-carboxamide] in this work.

An IC50 [1] of 9.32 nM and an IC50 [2] of 10 nM were found for `COc1cc2c(Oc3ccc(NC(=O)c4c5c(cn(-c6ccc(F)cc6)c4=O)CCC5)cc3F)ccnc2cc1OCCCN1CCOCC1` [Example 77, N-(3-Fluoro-4-((6-methoxy-7-(3-morpholinopropoxy)quinolin-4-yl)oxy)phenyl)-2-(4-fluorophenyl)-3-oxo-3,5,6,7-tetrahydro-2H-cyclopenta[c]pyridine-4-carboxamide] in this work.

An IC50 [1] of 0.78 nM and an IC50 [2] of 1 nM were found for `COc1cc2c(Oc3ccc(NC(=O)c4c5c(cn(-c6ccccc6)c4=O)CCO5)cc3F)ccnc2cc1OCCN1CCOCC1` [Example 79, N-(3-Fluoro-4-((6-methoxy-7-(2-morpholinoethoxy)quinolin-4-yl)oxy)phenyl)-6-oxo-5-phenyl-2,3,5,6-tetrahydrofuro[3,2-c]pyridine-7-carboxamide] in this work.

An IC50 [1] of 0.1 nM and an IC50 [2] of 2 nM were found for `CNC(=O)c1cc2c(Oc3ccc(NC(=O)c4c5c(cn(-c6ccc(F)cc6)c4=O)CCO5)cc3F)ccnc2cc1OCCN1CCOCC1` [Example 163, N-(3-Fluoro-4-((6-(methylcarbamoyl)-7-(2-morpholinoethoxy)quinolin-4-yl)oxy)phenyl)-5-(4-fluorophenyl)-6-oxo-2,3,5,6-tetrahydrofuro[3,2-c]pyridine-7-carboxamide] in this work.

An IC50 [1] of 0.83 nM and an IC50 [2] of 6 nM were found for `O=C(Nc1ccc(Oc2ccnc3cc(OCCN4CCOCC4)c(F)cc23)c(F)c1)c1c2c(cn(-c3ccc(F)cc3)c1=O)CCO2` [Example 167, N-(3-Fluoro-4-((6-fluoro-7-(2-morpholinoethoxy)quinolin-4-yl)oxy)phenyl)-5-(4-fluorophenyl)-6-oxo-2,3,5,6-tetrahydrofuro[3,2-c]pyridine-7-carboxamide] in this work.

An IC50 [1] of 0.45 nM and an IC50 [2] of 25 nM were found for `O=C(Nc1ccc(Oc2ccnc3cc(OCCCN4CCOCC4)c(F)cc23)c(F)c1)c1c2c(cn(-c3ccc(F)cc3)c1=O)CCO2` [Example 168, N-(3-Fluoro-4-((6-fluoro-7-(3-morpholinopropoxy)quinolin-4-yl)oxy)phenyl)-5-(4-fluorophenyl)-6-oxo-2,3,5,6-tetrahydrofuro[3,2-c]pyridine-7-carboxamide] in this work.

An IC50 [1] of 7.13 nM and an IC50 [2] of 8 nM were found for `O=C(Nc1ccc(Oc2ccnc3cc(OCCN4CCOCC4)c(Cl)cc23)c(F)c1)c1c2c(cn(-c3ccc(F)cc3)c1=O)CCO2` [Example 171, N-(4-((6-Chloro-7-(2-morpholinoethoxy)quinolin-4-yl)oxy)-3-fluorophenyl)-5-(4-fluorophenyl)-6-oxo-2,3,5,6-tetrahydrofuro[3,2-c]pyridine-7-carboxamide] in this work.

An IC50 [1] of 0.58 nM and an IC50 [2] of 3 nM were found for `N#Cc1cc2c(Oc3ccc(NC(=O)c4c5c(cn(-c6ccc(F)cc6)c4=O)CCO5)cc3F)ccnc2cc1OCCN1CCOCC1` [Example 173, N-(4-((6-Cyano-7-(2-morpholinoethoxy)quinolin-4-yl)oxy)-3-fluorophenyl)-5-(4-fluorophenyl)-6-oxo-2,3,5,6-tetrahydrofuro[3,2-c]pyridine-7-carboxamide] in this work.

An IC50 [1] of 1.61 nM and an IC50 [2] of 4 nM were found for `N#Cc1cc2c(Oc3ccc(NC(=O)c4c5c(cn(-c6ccc(F)cc6)c4=O)CCO5)cc3F)ccnc2cc1OCCCN1CCOCC1` [Example 174, N-(4-((6-Cyano-7-(3-morpholinopropoxy)quinolin-4-yl)oxy)-3-fluorophenyl)-5-(4-fluorophenyl)-6-oxo-2,3,5,6-tetrahydrofuro[3,2-c]pyridine-7-carboxamide] in this work.

An IC50 [1] of 1.24 nM and an IC50 [2] of 2 nM were found for `COc1cc2nccc(Oc3ccc(NC(=O)c4c5c(cn(-c6ccc(F)cc6)c4=O)CCO5)cc3F)c2cc1OCCN1CCOCC1` [Example 175, N-(3-Fluoro-4-((7-methoxy-6-(2-morpholinoethoxy)quinolin-4-yl)oxy)phenyl)-5-(4-fluorophenyl)-6-oxo-2,3,5,6-tetrahydrofuro[3,2-c]pyridine-7-carboxamide] in this work.

An IC50 [1] of 0.83 nM and an IC50 [2] of 6 nM were found for `O=C(Nc1ccc(Oc2ccnc3ccc(OCCN4CCOCC4)cc23)c(F)c1)c1c2c(cn(-c3ccc(F)cc3)c1=O)CCO2` [Example 177, N-(3-Fluoro-4-((6-(2-morpholinoethoxy)quinolin-4-yl)oxy)phenyl)-5-(4-fluorophenyl)-6-oxo-2,3,5,6-tetrahydrofuro[3,2-c]pyridine-7-carboxamide] in this work.

An IC50 [1] of 0.45 nM and an IC50 [2] of 25 nM were found for `O=C(Nc1ccc(Oc2ccnc3ccc(OCCCN4CCOCC4)cc23)c(F)c1)c1c2c(cn(-c3ccc(F)cc3)c1=O)CCO2` [Example 178, N-(3-Fluoro-4-((6-(3-morpholinopropoxy)quinolin-4-yl)oxy)phenyl)-5-(4-fluorophenyl)-6-oxo-2,3,5,6-tetrahydrofuro[3,2-c]pyridine-7-carboxamide] in this work.
